# Measured values: patent publication US7417023B2, “Targeted delivery of bioaffecting compounds for the treatment of cancer” (Faulk Pharmaceuticals, Inc., priority 2001, dated 2008)
# Like-named read-outs stand apart in the source and are kept apart here.
# Assays:
# [1] = test system: doxorubicin-resistant cancer cells; conditions: cited from earlier work
# transferrin receptors = test: regulation of transferrin receptors on drug-sensitive and drug-resistant cancer cells; type: cell-based; conditions: more on drug-resistant than on drug-sensitive cells
# [2] = test system: drug-resistant cancer cells; test: viability of drug-resistant cancer cells; type: cell-based; conditions: after 48 hours in a given concentration
# Source text: (§1) In order to test the relationship between calcium and transferrin receptors, the effect of calcium channel inhibitors on the regulation of transferrin receptors was studied in drug-sensitive and drug-resistant cancer cells. […]. […] The addition of both iron and calcium channel blockers had no effect on cell viability.
# (§2) In light of the above findings, another series of experiments were done to determine whether the restriction of iron by deferoxamine had differential effects on drug-sensitive and drug-resistant cancer cells.
# [3] = test system: drug-sensitive cancer cells; test: viability of drug-sensitive cancer cells; type: cell-based; conditions: after 48 hours in a given concentration
# Source text: as §1, §2
# human mesothelioma cells = conditions: nude mice, compared to animals treated only with doxorubicin; cited from earlier work
# [4] = test system: metastatic disease from a sarcoma
# advanced ovarian cancer = test: unpublished clinical study of 23 patients with advanced ovarian cancer; type: in vivo, human; conditions: equivalent to 1 mg doxorubicin per day, days 15 through 19 of monthly cycles; time between diagnosis and randomization 18 months; vs placebo
# Method: There is an unpublished clinical study of 23 patients with advanced ovarian cancer who were randomized into test (12 patients) and placebo (11 patients) groups. The test group received transferrin-doxorubicin conjugates equivalent to 1 mg doxorubicin per day on days 15 through 19 of monthly treatment cycles.
# [5] = test system: leukemic cells in peripheral blood; conditions: cited from earlier work
compound,measurement,setting,value
"COc1cccc2c1C(=O)c1c(O)c3c(c(O)c1C2=O)C[C@@](O)(C(=O)CO)C[C@@H]3O[C@H]1C[C@H](N)[C@H](O)[C@H](C)O1 [doxorubicin, reference compound]",killing of drug-resistant cancer cells,[1],not killed by 10-fold higher concentrations
transferrin-bound iron: iron bound to transferrin,regulation of transferrin receptors by calcium channel blockers or iron,transferrin receptors,down-regulated receptors much more on drug-resistant cells
"[Cl][Cd][Cl] [CdCl2, reference compound]",regulation of transferrin receptors by calcium channel blockers or iron,transferrin receptors,down-regulation of receptors
CC(=O)N(O)CCCCCNC(=O)CCC(=O)N(O)CCCCCNC(=O)CCC(=O)N(O)CCCCCN [deferoxamine],viability (cells alive),[2],16%
same,viability,[3],93%
transferrin-doxorubicin conjugates,survival,human mesothelioma cells,significantly prolonging life
same,killing of drug-resistant cancer cells,[1],effectively kill multi-drug resistant cells
same,killing of drug-resistant cancer cells,[1]; listed as doxorubicin conjugates of transferrin,kill doxorubicin-resistant cancer cells
same,radiological evidence of tumor,[4]; by January,no radiological evidence of tumor
same,metastatic lesions of the lungs,"[4]; treatment begun August 2000, by November",substantially cleared of metastatic lesions
same,Cox regression estimates of survival rates,advanced ovarian cancer,significant difference
same,toxic effects,"[5]; 7 acute leukemia patients, 1 mg/day intravenously for 5 days",no toxic effects
same,decrease of the number of leukemic cells in peripheral blood,"[5]; 7 patients, within 10-days following therapy",86%
same,extension of disease by bone marrow biopsies,[5]; before and after treatment,no extension of disease
